Numbered stars: 1 amine (or outer) side, 2 acyl side, 3 side chain; on linkers, the order of the positions; unused ones are H or OH. Bridge positions count the residues as written; N and C are the ends. Square brackets hold non-standard residues; d marks the D form. Peptide text beside a SMILES is read from it. * marks the point of attachment. TBMB(SCH2CH2NH-DOTA) = O=C(O)CN1CCN(CC(=O)O)CCN(CC(=O)NCCSCc2cc(C[*:1])cc(C[*:2])c2)CCN(CC(=O)O)CC1; X4 = O=C1CN2CCN3CCN(CC(=O)N4CCN(Cc5cc(C[*:1])cc(C[*:2])c5)CC4)CCN(CC2)CC(=O)[O][In]([O]1)[O]C(=O)C3; X8 = O=C1CN2CCN3CCN(CC(=O)N4CCN(Cc5cc(C[*:1])cc(C[*:2])c5)CC4)CCN(CC2)CC(=O)[O][Ga]([O]1)[O]C(=O)C3; NH(CH2)5NHDOTA = O=C(O)CN1CCN(CC(=O)O)CCN(CC(=O)NCCCCCN*)CCN(CC(=O)O)CC1; Phe(2-CF3) = N[C@@H](Cc1ccccc1C(F)(F)F)C(=O)O; X12 = NCCNCC(CNCCN)C(=O)NCCCOCCOCCOCCCN*; mXylylene = c1cc(C[*:1])cc(C[*:2])c1; Pentanesulfonyl = CCCCCS(=O)(=O)*; Suc = O=C(CCC(=O)[*:2])[*:1]; Nle = CCCC[C@H](N)C(=O)O; Hexanoyl = CCCCCC(=O)*; Sar = CNCC(=O)O
Key:
Human recombinant FAP [1] = target: T1, Human recombinant FAP (Homo sapiens, UniProt Q12884); assay: Surface plasmon resonance (Biacore) assay; format: binding
T1 sequence (Q12884 1-760): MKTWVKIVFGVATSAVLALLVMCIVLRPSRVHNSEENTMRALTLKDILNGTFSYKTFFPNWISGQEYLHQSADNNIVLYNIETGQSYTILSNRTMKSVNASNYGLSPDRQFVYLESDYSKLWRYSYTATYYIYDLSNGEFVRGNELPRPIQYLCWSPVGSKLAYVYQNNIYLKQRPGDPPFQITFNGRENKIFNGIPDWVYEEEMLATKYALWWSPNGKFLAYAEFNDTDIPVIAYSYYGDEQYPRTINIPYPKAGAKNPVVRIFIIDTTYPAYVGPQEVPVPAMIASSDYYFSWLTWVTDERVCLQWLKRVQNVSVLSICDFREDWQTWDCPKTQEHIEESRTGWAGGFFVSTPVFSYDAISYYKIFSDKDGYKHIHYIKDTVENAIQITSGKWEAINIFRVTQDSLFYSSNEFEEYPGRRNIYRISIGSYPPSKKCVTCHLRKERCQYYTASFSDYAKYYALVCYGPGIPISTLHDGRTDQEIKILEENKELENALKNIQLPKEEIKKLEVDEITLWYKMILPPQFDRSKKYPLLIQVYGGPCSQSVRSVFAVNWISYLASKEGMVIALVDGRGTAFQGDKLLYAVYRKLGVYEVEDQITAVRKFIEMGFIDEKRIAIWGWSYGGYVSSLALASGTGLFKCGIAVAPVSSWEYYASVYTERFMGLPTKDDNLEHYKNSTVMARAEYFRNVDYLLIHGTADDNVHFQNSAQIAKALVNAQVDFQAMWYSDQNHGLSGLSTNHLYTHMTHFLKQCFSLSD

Human recombinant FAP [2] = target: T1, Human recombinant FAP; assay: FRET-based FAP protease activity assay; format: biochemical; design: purchased R&D systems 3715-SE; settings: pIC50 Category (Activity), FRET substrate, 37° C.
[3] = target: T2, FAP-expressing human WI-38 fibroblasts (Homo sapiens, UniProt Q12884); assay: Competitive FACS binding assay; settings: pIC50 Category (FACS), competition with 3 nM Cy5-labeled compound, 4° C., 1 hour
T2 construct: FAP-expressing human WI-38 fibroblasts (ECACC) were cultured in EMEM; host or cells: WI-38 human fibroblasts
T2 sequence (Q12884 1-760): T1 sequence (Q12884 1-760)
Method: Cells were analyzed in an Attune NxT flow cytometer. […]

CCCCCC(=O)N[C@H]1CSCc2cc(cc(CN3CCN(C(=O)CN4CCN5CCN6CCN(CC4)CC(=O)[O][Ga]([O]C(=O)C6)[O]C(=O)C5)CC3)c2)CSC[C@@H](C(=O)N[C@@H](CC(=O)O)C(N)=O)NC(=O)[C@H](Cc2ccccc2)NC(=O)[C@H](CCC(N)=O)NC(=O)[C@H]([C@@H](C)O)NC(=O)[C@@H]2CCCN2C(=O)[C@@H]2CCCN2C1=O [3BP-3592, Gallium-Complex of Hex-[Cys(tMeBn(DOTA-PP))-Pro-Pro-Thr-Gln-Phe-Cys]-Asp-NH2] (Hexanoyl-CPPTQFCD-NH2; linker 1-7 via X8)
< 0.01 µM: Kd (Human recombinant FAP [1]) | IC50 (Human recombinant FAP [2]; recombinant human FAP) | IC50 ([3]; WI-38 fibroblasts)

CCCCCC(=O)N[C@H]1CSCc2cccc(c2)CSC[C@@H](C(=O)N[C@@H](CC(=O)O)C(=O)NCCCCCNC(=O)CN2CCN(CC(=O)O)CCN(CC(=O)O)CCN(CC(=O)O)CC2)NC(=O)[C@H](Cc2ccccc2)NC(=O)[C@H](CCC(N)=O)NC(=O)[C@H]([C@@H](C)O)NC(=O)[C@@H]2CCCN2C(=O)[C@@H]2CCCN2C1=O [3BP-3403, Hex-[Cys(3MeBn)-Pro-Pro-Thr-Gln-Phe-Cys]-Asp-Ape(DOTA)] (Hexanoyl-CPPTQFCD-{NH(CH2)5NHDOTA}; linker 1-7 via mXylylene)
< 0.01 µM: Kd (Human recombinant FAP [1]) | IC50 (Human recombinant FAP [2]; recombinant human FAP) | IC50 ([3]; WI-38 fibroblasts)

CCCCCC(=O)N[C@H]1CSCc2cc(CSCCNC(=O)CN3CCN(CC(=O)O)CCN(CC(=O)O)CCN(CC(=O)O)CC3)cc(c2)CSC[C@@H](C(=O)NCCC(N)=O)NC(=O)[C@H](Cc2ccccc2)NC(=O)[C@H](CCC(N)=O)NC(=O)[C@H]([C@@H](C)O)NC(=O)[C@@H]2CCCN2C(=O)[C@@H]2CCCN2C1=O [3BP-3736, Hex-[Cys(tMeBn(DOTA-AET))-Pro-Pro-Thr-Gln-Phe-Cys]-Bal-NH2]
< 0.01 µM: Kd (Human recombinant FAP [1]) | IC50 (Human recombinant FAP [2]) | IC50 [3]

CCCCCC(=O)N[C@H]1CSCc2cccc(c2)CSC[C@@H](C(=O)N[C@@H](CC(=O)O)C(N)=O)NC(=O)[C@H](Cc2ccccc2)NC(=O)[C@H](CCC(=O)O)NC(=O)[C@H]([C@@H](C)O)NC(=O)[C@@H]2CCCN2C(=O)[C@@H]2CCCN2C1=O [3BP-3288, Hex-[Cys(3MeBn)-Pro-Pro-Thr-Glu-Phe-Cys]-Asp-NH2] (Hexanoyl-CPPTEFCD-NH2; linker 1-7 via mXylylene)
< 0.01 µM: Kd (Human recombinant FAP [1]) | IC50 (Human recombinant FAP [2]; recombinant human FAP) | IC50 ([3]; WI-38 fibroblasts)

CCCCCS(=O)(=O)N[C@H]1CSCc2cc(cc(CN3CCN(C(=O)CN4CCN5CCN6CCN(CC4)CC(=O)[O][In]([O]C(=O)C6)[O]C(=O)C5)CC3)c2)CSC[C@@H](C(=O)N[C@@H](CC(=O)O)C(N)=O)NC(=O)[C@H](Cc2ccccc2)NC(=O)[C@H](CCC(N)=O)NC(=O)[C@H]([C@@H](C)O)NC(=O)[C@@H]2CCCN2C(=O)[C@@H]2CCCN2C1=O [3BP-3717, Pentyl-SO2-[Cys(tMeBn(InDOTA-PP))-Pro-Pro-Thr-Gln-Phe-Cys]-Asp-NH2] (Pentanesulfonyl-CPPTQFCD-NH2; linker 1-7 via X4)
< 0.01 µM: Kd (Human recombinant FAP [1]) | IC50 (Human recombinant FAP [2]) | IC50 [3]

CCCCCC(=O)N[C@H]1CSCc2cc(CSCCNC(=O)CN3CCN(CC(=O)O)CCN(CC(=O)O)CCN(CC(=O)O)CC3)cc(c2)CSC[C@@H](C(=O)NCCC(=O)O)NC(=O)[C@H](Cc2ccccc2)NC(=O)[C@H](CCC(N)=O)NC(=O)[C@H]([C@@H](C)O)NC(=O)[C@@H]2CCCN2C(=O)[C@@H]2CCCN2C1=O [3BP-3651, Hex-[Cys(tMeBn(DOTA-AET))-Pro-Pro-Thr-Gln-Phe-Cys]-Bal-OH]
< 0.01 µM: Kd (Human recombinant FAP [1]) | IC50 (Human recombinant FAP [2]; recombinant human FAP) | IC50 ([3]; WI-38 fibroblasts)

CCCC[C@H](NC(=O)CCC(=O)NCCCOCCOCCOCCCNC(=O)C(CNCCN)CNCCN)C(=O)N[C@H]1CSCc2cccc(c2)CSC[C@@H](C(=O)O)NC(=O)[C@H](Cc2ccccc2)NC(=O)[C@H](CCC(=O)O)NC(=O)[C@H]([C@@H](C)O)NC(=O)[C@@H]2CCCN2C(=O)[C@@H]2CCCN2C1=O [3BP-4161, N4Ac-Ttds-Nle-[Cys-(3MeBn)-Pro-Pro-Thr-Glu-Phe-Cys]-OH] ({X12-Suc}-[Nle]CPPTEFC-OH; linker 2-8 via mXylylene)
< 0.01 µM: Kd (Human recombinant FAP [1]) | IC50 (Human recombinant FAP [2]) | IC50 [3]

CCCCCC(=O)N[C@H]1CSCc2cc(CSCCNC(=O)CN3CCN(CC(=O)O)CCN(CC(=O)O)CCN(CC(=O)O)CC3)cc(c2)CSC[C@@H](C(=O)O)NC(=O)[C@H](Cc2ccccc2C(F)(F)F)NC(=O)[C@H](CCC(N)=O)NC(=O)[C@H]([C@@H](C)O)NC(=O)[C@@H]2CCCN2C(=O)CN(C)C1=O [3BP-3680, Hex-[Cys(tMeBn(DOTA-AET))-Pro-Pro-Thr-Gln-Otf-Cys]-OH] (Hexanoyl-C[Sar]PTQ[Phe(2-CF3)]C-OH; linker 1-7 via TBMB(SCH2CH2NH-DOTA))
< 0.01 µM: Kd (Human recombinant FAP [1]) | IC50 (Human recombinant FAP [2]) | IC50 [3]

Source: US20220315554A1, “COMPOUNDS COMPRISING A […] LIGAND AND USE THEREOF” (priority 2019, published 2022)
